# Source: article PMC4177392, “Modulation of Cytochrome P450 Metabolism and Transport across Intestinal Epithelial Barrier by Ginger Biophenolics” (PLoS ONE, 2014)
# Like-named read-outs stand apart in the source and are kept apart here.
# How the values were obtained:
# CYP2E1 = CYP2E1 (Homo sapiens, UniProt P05181); assay: CYP2E1 inhibition in human liver microsomes (substrate chlorzoxazone); conditions: for IC50 CYP2E1: human liver microsomes, substrate chlorzoxazone
# Procedure: (§1) Stock solution for each CYP specific probe substrate was prepared in such a way that the final concentration is below the reported Km value.
# (§2) A microsome-buffer-substrate mixture (MBS mix) was prepared for each isozyme by pre-mixing appropriate volumes of sodium phosphate buffer (pH 7.4, 50 mM), microsomes and substrate (Table S2 in File S1). 179 µL of MBS mix was transferred to 96-well reaction plate to which 1 µL of inhibitor stock solution was added to achieve the final target inhibitor concentration. The reaction plate was pre-incubated for 10 min at 37°C followed by reaction initiation by addition of 20 µL of 10 mM NADPH solution. The reaction plate was then incubated at 37°C for a predetermined time period following which it was quenched with 200 µL ACN for all CYPs and 200 µL 1% formic acid in water∶ACN (70∶30) for CYP1A2. In all cases, the final incubations after addition of substrate and inhibitor contained 0.1% DMSO (v/v), and the total organic solvent (DMSO and ACN) content was less than or equal to 1% (v/v). The details of final substrate concentration, incubation time, microsomal protein concentration in the reaction mixtures and the metabolites monitored for each isozyme tested are presented in Table S3 in File S1.
# (§3) All samples were processed using protein precipitation method and analyzed by employing positive (for all CYPs) and negative (for CYP2A6, 2C19 and 2E1) ionization mode in liquid chromatography tandem mass spectrometry (API4000, Applied Biosystems, USA). The peak area ratio of analyte to IS was used for calculations. An isocratic method comprising 5 mM ammonium formate and ACN (40∶60) with 0.05% formic acid was used for elution. For CYP2C19, a mobile phase consisting of 5 mM ammonium formate and ACN (30∶70) was used. The analytes and internal standards were retained on BDS Hypersil Phenyl (150×4.6 mm, 5 µ, Thermo, USA) column. A flow rate of 0.5 mL/min (CYP1A2), 0.6 mL/min (CYP2C19, CYP2E1), 0.7 mL/min (CYP2C9), 0.8 mL/min (CYP2A6, CYP3A), 1.0 mL/min (CYP2B6, CYP2C8, CYP2D6) was maintained using Shimadzu Prominence solvent delivery system (LC-20AD). The mobile phase was degassed using degasser (DGU-20A3), samples were loaded into autosampler (SIL-HTc) and the column temperature was maintained at 40°C by column oven (CTO-20A). Injection volumes for the samples were as follows: 5 µL (CYP1A2, CYP2D6, and CYP3A), 10 µL (CYP2B6, CYP2C8, and CYP2E1) and 20 µL (CYP2A6, CYP2C9, and CYP2C19). Data was collected and processed using Sciex Analyst 1.4.2. All the structures of inhibitors, substrates, metabolites and internal standards for each CYP enzyme are represented in Table S6 in File S1.
# The IC50 value was estimated from the percentage reduction in CYP activity at eleven inhibitor concentrations with respect to control.
# (§4) The data was analysed using 4PL (parameter logistic model), 3PLFB (bottom fixed), 3PLFT (top fixed), 2PL (top and bottom fixed), and the relative IC50 was with lowest standard error was further manipulation. Absolute IC50 was calculated from this relative IC50 by using the equation below: [drawing 3]
# CYP2A6 = target: T1, CYP2A6 (Homo sapiens, UniProt P11509); assay: CYP2A6 inhibition in human liver microsomes (substrate coumarin); type: in vitro ADME; conditions: for IC50 CYP2A6: human liver microsomes, substrate coumarin
# T1 sequence (P11509 1-494): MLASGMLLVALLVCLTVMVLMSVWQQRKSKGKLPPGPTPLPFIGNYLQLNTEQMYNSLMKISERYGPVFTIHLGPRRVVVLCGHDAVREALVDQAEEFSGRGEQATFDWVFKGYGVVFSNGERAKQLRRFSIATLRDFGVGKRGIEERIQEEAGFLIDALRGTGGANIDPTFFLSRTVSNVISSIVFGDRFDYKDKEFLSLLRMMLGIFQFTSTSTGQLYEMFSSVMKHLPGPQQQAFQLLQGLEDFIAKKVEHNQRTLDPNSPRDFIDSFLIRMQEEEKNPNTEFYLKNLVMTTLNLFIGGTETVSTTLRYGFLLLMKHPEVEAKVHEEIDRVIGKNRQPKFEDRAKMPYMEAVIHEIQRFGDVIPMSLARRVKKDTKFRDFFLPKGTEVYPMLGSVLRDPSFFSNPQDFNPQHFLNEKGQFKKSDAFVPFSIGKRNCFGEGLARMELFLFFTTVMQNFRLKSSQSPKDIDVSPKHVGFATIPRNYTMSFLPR
# Procedure: (§5) The highest concentration of GE used in the assay was 500 µg/mL equivalent. Stock solution for each CYP specific probe substrate was prepared in such a way that the final concentration is below the reported Km value.
# (§6) A microsome-buffer-substrate mixture (MBS mix) was prepared for each isozyme by pre-mixing appropriate volumes of sodium phosphate buffer (pH 7.4, 50 mM), microsomes and substrate (Table S2 in File S1). 179 µL of MBS mix was transferred to 96-well reaction plate to which 1 µL of inhibitor stock solution was added to achieve the final target inhibitor concentration. The reaction plate was pre-incubated for 10 min at 37°C followed by reaction initiation by addition of 20 µL of 10 mM NADPH solution. The reaction plate was then incubated at 37°C for a predetermined time period following which it was quenched with 200 µL ACN for all CYPs and 200 µL 1% formic acid in water∶ACN (70∶30) for CYP1A2. In all cases, the final incubations after addition of substrate and inhibitor contained 0.1% DMSO (v/v), and the total organic solvent (DMSO and ACN) content was less than or equal to 1% (v/v). […] The incubations were performed in singlet for individual gingerols and in duplicate for GE along with respective positive controls.
# CYP3A4 [1] = target: T2, CYP3A4 (Homo sapiens, UniProt P08684); assay: CYP3A4 inhibition in human liver microsomes (substrate midazolam); type: in vitro ADME
# T2 sequence (P08684 2-503): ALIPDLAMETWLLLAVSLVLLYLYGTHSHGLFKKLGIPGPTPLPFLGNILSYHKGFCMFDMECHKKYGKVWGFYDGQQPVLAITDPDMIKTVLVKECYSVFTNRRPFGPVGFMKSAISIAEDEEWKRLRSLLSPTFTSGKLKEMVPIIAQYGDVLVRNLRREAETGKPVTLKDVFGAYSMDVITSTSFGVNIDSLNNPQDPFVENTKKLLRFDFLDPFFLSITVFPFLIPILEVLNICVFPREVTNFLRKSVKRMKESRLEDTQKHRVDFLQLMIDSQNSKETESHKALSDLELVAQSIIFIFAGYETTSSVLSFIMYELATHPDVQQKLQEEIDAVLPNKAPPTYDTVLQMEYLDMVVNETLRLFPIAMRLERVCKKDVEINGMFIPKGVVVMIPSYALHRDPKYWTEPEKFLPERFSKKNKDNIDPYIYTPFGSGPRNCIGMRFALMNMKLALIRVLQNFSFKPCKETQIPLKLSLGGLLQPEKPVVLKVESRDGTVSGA
# Procedure: as §5
# (§7) A microsome-buffer-substrate mixture (MBS mix) was prepared for each isozyme by pre-mixing appropriate volumes of sodium phosphate buffer (pH 7.4, 50 mM), microsomes and substrate (Table S2 in File S1). 179 µL of MBS mix was transferred to 96-well reaction plate to which 1 µL of inhibitor stock solution was added to achieve the final target inhibitor concentration. The reaction plate was pre-incubated for 10 min at 37°C followed by reaction initiation by addition of 20 µL of 10 mM NADPH solution. The reaction plate was then incubated at 37°C for a predetermined time period following which it was quenched with 200 µL ACN for all CYPs and 200 µL 1% formic acid in water∶ACN (70∶30) for CYP1A2. In all cases, the final incubations after addition of substrate and inhibitor contained 0.1% DMSO (v/v), and the total organic solvent (DMSO and ACN) content was less than or equal to 1% (v/v). The details of final substrate concentration, incubation time, microsomal protein concentration in the reaction mixtures and the metabolites monitored for each isozyme tested are presented in Table S3 in File S1. The incubations were performed in singlet for individual gingerols and in duplicate for GE along with respective positive controls.
# (§8) All samples were processed using protein precipitation method and analyzed by employing positive (for all CYPs) and negative (for CYP2A6, 2C19 and 2E1) ionization mode in liquid chromatography tandem mass spectrometry (API4000, Applied Biosystems, USA). The peak area ratio of analyte to IS was used for calculations. An isocratic method comprising 5 mM ammonium formate and ACN (40∶60) with 0.05% formic acid was used for elution. For CYP2C19, a mobile phase consisting of 5 mM ammonium formate and ACN (30∶70) was used. The analytes and internal standards were retained on BDS Hypersil Phenyl (150×4.6 mm, 5 µ, Thermo, USA) column. A flow rate of 0.5 mL/min (CYP1A2), 0.6 mL/min (CYP2C19, CYP2E1), 0.7 mL/min (CYP2C9), 0.8 mL/min (CYP2A6, CYP3A), 1.0 mL/min (CYP2B6, CYP2C8, CYP2D6) was maintained using Shimadzu Prominence solvent delivery system (LC-20AD). The mobile phase was degassed using degasser (DGU-20A3), samples were loaded into autosampler (SIL-HTc) and the column temperature was maintained at 40°C by column oven (CTO-20A). […]
# CYP3A4 [2] = target: T2, CYP3A4; assay: CYP3A4 inhibition in human liver microsomes (substrate testosterone); type: in vitro ADME
# Procedure: as §5, §6
# CYP2C19 = CYP2C19 (Homo sapiens, UniProt P33261); assay: CYP2C19 inhibition in human liver microsomes (substrate (S)-mephenytoin); type: in vitro ADME
# CYP2C19, sequence (P33261 whole entry): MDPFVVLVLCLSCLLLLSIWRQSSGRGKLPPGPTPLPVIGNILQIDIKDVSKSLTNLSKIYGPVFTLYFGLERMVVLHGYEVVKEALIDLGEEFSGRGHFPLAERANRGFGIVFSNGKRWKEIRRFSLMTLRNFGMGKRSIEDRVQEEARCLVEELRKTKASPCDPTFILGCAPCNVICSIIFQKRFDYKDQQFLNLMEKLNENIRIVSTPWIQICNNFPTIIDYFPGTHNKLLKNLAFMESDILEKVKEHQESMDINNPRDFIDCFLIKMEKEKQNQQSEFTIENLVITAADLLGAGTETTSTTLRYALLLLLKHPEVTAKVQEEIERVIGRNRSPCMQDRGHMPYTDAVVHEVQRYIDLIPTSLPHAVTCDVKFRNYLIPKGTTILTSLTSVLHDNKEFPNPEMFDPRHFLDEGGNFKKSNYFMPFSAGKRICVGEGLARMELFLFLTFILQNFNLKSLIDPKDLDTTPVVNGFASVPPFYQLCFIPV
# Procedure: as §5, §7, §8
# [3] = cited from earlier work
# CYP1A2 = target: T3, CYP1A2 (Homo sapiens, UniProt P05177); assay: CYP1A2 inhibition in human liver microsomes (substrate phenacetin); type: in vitro ADME
# T3 construct: […]; tissue XenoTechLLC H0610
# T3 sequence (P05177 1-516): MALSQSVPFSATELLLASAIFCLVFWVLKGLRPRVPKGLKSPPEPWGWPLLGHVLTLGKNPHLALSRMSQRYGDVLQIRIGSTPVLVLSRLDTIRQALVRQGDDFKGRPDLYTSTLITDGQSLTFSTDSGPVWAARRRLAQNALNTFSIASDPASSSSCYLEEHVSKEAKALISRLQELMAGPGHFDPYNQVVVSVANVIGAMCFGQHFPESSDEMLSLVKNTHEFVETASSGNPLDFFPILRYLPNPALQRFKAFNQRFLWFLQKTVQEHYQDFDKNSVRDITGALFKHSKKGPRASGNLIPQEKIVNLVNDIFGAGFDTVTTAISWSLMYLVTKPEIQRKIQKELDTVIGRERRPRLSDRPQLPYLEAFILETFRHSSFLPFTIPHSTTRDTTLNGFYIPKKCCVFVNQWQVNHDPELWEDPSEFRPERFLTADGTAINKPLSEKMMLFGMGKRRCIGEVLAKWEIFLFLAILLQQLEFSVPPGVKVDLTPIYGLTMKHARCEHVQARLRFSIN
# Procedure: as §5, §6
# Caco-2 monolayer = assay: Caco-2 permeability assay; conditions: 10 µM; for Intracellular (cell) accumulation: direction not given; for Papp: n = 3, mean ± SD
# CYP2C8 = target: T4, CYP2C8 (Homo sapiens, UniProt P10632); assay: CYP2C8 inhibition in human liver microsomes (substrate amodiaquine); type: in vitro ADME; conditions: substrate amodiaquine, gingerols and GE
# T4 sequence (P10632 1-490): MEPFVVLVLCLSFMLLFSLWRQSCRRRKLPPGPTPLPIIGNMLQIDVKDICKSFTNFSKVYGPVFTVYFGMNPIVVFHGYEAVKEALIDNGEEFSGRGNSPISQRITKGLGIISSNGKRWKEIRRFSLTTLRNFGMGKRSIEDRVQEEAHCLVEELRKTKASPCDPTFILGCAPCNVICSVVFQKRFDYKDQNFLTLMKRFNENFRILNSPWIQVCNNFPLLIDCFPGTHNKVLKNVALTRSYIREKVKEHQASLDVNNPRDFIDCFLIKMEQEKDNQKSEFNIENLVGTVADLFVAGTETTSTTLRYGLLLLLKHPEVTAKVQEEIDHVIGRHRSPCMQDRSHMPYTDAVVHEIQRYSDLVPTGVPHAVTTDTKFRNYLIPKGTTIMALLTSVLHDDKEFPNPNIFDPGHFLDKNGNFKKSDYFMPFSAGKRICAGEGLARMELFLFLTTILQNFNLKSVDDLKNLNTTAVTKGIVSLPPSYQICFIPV
# Procedure: as §5, §6
# CYP2B6 = target: T5, CYP2B6 (Homo sapiens, UniProt P20813); assay: CYP2B6 inhibition in human liver microsomes (substrate bupropion); type: in vitro ADME
# T5 sequence (P20813 1-491): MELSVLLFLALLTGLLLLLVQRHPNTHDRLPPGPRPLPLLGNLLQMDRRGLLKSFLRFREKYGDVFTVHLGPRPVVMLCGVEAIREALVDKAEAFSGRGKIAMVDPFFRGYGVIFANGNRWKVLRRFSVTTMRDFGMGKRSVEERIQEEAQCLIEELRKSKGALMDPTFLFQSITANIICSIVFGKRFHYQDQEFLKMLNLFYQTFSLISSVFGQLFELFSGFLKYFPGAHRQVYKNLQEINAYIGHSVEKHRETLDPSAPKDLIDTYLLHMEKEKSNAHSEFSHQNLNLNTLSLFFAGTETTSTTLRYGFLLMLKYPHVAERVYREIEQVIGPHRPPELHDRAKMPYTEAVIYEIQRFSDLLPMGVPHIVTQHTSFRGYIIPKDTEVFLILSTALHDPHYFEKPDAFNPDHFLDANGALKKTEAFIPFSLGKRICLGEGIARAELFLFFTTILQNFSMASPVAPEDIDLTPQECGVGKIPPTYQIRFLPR
# Procedure: as §5, §6
# CYP2C9 = CYP2C9 (Homo sapiens, UniProt P11712); assay: CYP2C9 inhibition in human liver microsomes (substrate diclofenac)
# CYP2C9, sequence (P11712 whole entry): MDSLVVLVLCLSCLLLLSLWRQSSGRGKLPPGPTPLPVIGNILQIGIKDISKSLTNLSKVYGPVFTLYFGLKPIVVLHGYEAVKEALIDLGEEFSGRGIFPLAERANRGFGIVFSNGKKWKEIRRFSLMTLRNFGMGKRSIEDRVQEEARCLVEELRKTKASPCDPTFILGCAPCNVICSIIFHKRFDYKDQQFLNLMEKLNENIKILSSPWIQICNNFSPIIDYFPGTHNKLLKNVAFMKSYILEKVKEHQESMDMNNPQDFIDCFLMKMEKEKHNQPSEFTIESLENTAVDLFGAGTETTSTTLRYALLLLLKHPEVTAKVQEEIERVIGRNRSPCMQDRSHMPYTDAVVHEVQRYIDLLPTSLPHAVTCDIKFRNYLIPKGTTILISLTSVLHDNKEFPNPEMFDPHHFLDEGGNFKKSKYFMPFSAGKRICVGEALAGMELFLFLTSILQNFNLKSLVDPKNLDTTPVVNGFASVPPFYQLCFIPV
# Procedure: as §1, §2
# as §3, with “All the structures of inhibitors, substrates, metabolites and internal standards for each CYP enzyme are represented in Table S6 in File S1.” left out
# as §4
# CYP2D6 = CYP2D6 (Homo sapiens, UniProt P10635); assay: CYP2D6 inhibition in human liver microsomes (substrate dextromethorphan); type: in vitro ADME; conditions: substrate dextromethorphan, gingerols and GE
# CYP2D6, sequence (P10635 whole entry): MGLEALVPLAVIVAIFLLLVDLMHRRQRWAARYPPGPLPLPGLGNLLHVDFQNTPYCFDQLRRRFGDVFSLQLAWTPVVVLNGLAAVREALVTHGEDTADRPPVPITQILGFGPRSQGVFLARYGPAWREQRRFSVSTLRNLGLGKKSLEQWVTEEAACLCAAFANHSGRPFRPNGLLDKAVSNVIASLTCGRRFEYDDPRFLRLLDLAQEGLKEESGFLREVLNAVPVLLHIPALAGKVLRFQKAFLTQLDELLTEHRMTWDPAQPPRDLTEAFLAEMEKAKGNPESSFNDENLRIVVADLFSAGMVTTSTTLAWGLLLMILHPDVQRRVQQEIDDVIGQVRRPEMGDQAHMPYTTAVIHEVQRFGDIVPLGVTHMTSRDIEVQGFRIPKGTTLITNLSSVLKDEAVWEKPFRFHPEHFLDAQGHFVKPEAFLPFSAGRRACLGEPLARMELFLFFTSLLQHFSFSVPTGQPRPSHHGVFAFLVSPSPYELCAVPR
# Procedure: as §5, §7, §8
# [4] = Caco-2 permeability assay; conditions: human; for recovery at 120 min, 10 µM: Caco-2, pH 7.4, Mass Balance (recovery); for Papp at 120 min, 10 µM: Caco-2, pH 7.4, Papp, n = 3, mean ± SD
# Procedure: Caco-2 cells were seeded on tissue culture inserts at a density of 80,000 cells/insert. The cells were maintained for 21 days in culture medium to enable differentiation and formation of the monolayer. The culture medium was changed every alternate day.
# Stock solutions (1 mM) of individual gingerols were prepared in DMSO, which were then spiked into the buffer to obtain a final assay concentration of 10 µM. HBSS-HEPES buffer was prepared by dissolving 9.7 g Hank's balanced salts, 0.37 g sodium bicarbonate, 3.50 g glucose and 2.38 g HEPES in Milli-Q water (1 L). The pH of the buffer was adjusted to 7.4 using either 1N hydrochloric acid or 1N sodium hydroxide.
# Permeability of gingerols (10 µM) was determined in apical to basolateral (A-B) and basolateral to apical (B-A) directions. Transport studies were conducted between 21–25 days post seeding in 12-well Transwell inserts. Following pre-incubation in HBSS-HEPES buffer at 37°C, 5% CO2 for 30 min, buffer was removed and gingerols spiked buffer was added to each donor compartment (triplicate wells). Blank HBSS-HEPES buffer containing 1% DMSO was added to the receiver compartment. Samples were withdrawn from the receiver chamber at 30, 60, 90, and 120 min, and from the donor chamber at 0 and 120 min. The samples were collected in tubes containing equal volume of ACN. The withdrawn volume was replaced with buffer containing 1% DMSO. At the end of the experiment, cells were washed with ice-cold buffer and lysed with ACN to assess cell accumulation and estimate the recovery. Monolayers with transepithelial electrical resistance (TEER) above 300 Ωcm^2 were considered for the assay and after the assay TEER values were above 300 Ωcm^2 confirming the monolayer integrity during the experiment.
# Samples were processed using protein precipitation method and analyzed using LC/MS/MS. A calibration curve (CC) of 5 nM to 10,000 nM range was employed to quantify the samples. […] Separation was achieved using Zorbax C18 column (50×4.6 mm, 3.5 µ, Agilent) for 8G, 10G, 6S and using Hypurity C18 column (100×4.6 mm, 5 µ, Thermo) for 6G. An injection volume of 20 µL was used for all samples and a flow rate of 0.6 mL/min (6G) and 1 mL/min (8G, 10G and 6S) was used for elution.
# Cumulative amount of gingerols transported at each time point was plotted as function of time. The slope was used to calculate the rate of appearance of gingerols (dQ/dt).
# Apparent permeability (Papp) was calculated using the formula [drawing 4] dQ/dt – rate of transport to receiver side
# CYP2E1, sequence (P05181 whole entry): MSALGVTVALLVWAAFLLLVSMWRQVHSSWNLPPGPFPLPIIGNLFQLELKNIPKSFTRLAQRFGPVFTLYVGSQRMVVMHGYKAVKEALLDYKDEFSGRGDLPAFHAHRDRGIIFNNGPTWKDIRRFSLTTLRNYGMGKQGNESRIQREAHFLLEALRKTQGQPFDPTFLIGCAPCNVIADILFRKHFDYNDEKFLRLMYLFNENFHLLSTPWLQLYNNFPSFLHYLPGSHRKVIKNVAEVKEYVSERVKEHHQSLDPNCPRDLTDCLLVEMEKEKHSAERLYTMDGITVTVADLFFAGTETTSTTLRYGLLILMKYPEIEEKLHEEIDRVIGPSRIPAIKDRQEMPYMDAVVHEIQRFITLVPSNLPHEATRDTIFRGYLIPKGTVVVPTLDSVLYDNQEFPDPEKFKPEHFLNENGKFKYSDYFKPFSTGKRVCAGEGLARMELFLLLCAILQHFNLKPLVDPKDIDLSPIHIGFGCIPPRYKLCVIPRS
compound,measurement,setting,value
"N[C@@H]1C[C@H]1c1ccccc1 (racemic) [Tranylcypromine, reference compound]",IC50 CYP2E1,CYP2E1; positive control,0.5793 µg/mL
same,IC50 CYP2E1,"CYP2E1; positive control, listed as tranylcypromine",0.579 µg/mL
same,IC50 CYP2A6,CYP2A6; positive control,0.0084 µg/mL
same,"CYP2A6 inhibition, fold more effective than the test compounds",CYP2A6; positive control vs test compounds,~4000 fold
"CCCCC/C=C/C(=O)CCc1ccc(O)c(OC)c1 [6S, 6-shogaol]",IC50 CYP2E1,CYP2E1; gingerols and GE,21 µg/mL
same,IC50 CYP3A4 (midazolam),"CYP3A4 [1]; human liver microsomes, substrate midazolam, gingerols and GE",18 µg/mL
same,IC50 CYP3A4 (testosterone),"CYP3A4 [2]; human liver microsomes, substrate testosterone, gingerols and GE",2.3 µg/mL
same,IC50 CYP2C19,"CYP2C19; human liver microsomes, substrate (S)-mephenytoin, gingerols and GE",1.1 µg/mL
same,Cmax / circulating concentration in humans,"[3]; humans, oral 2 g GE, as glucuronide and sulfate conjugates",150 ± 120 ng/mL
same,IC50 CYP1A2,"CYP1A2; human liver microsomes, substrate phenacetin, gingerols and GE",0.7 µg/mL
same,Intracellular (cell) accumulation,Caco-2 monolayer,almost no accumulation
same,Intracellular accumulation,Caco-2 monolayer; A→B,0%
same,Papp,Caco-2 monolayer; A→B,0.071 ± 0.014 ×10⁻⁶ cm/s
same,Intracellular accumulation,Caco-2 monolayer; B→A,1%
same,Papp,Caco-2 monolayer; B→A,0.4 ± 0.2 ×10⁻⁶ cm/s
same,IC50 CYP2C8,CYP2C8; human liver microsomes,0.8 µg/mL
same,IC50 CYP2B6,"CYP2B6; human liver microsomes, substrate bupropion, gingerols and GE",1.6 µg/mL
same,IC50 CYP2C9,"CYP2C9; human liver microsomes, substrate diclofenac, gingerols and GE",0.9 µg/mL
same,IC50 CYP2A6,CYP2A6; gingerols and GE,23 µg/mL
same,IC50 CYP2D6,CYP2D6; human liver microsomes,24 µg/mL
"CCCCC[C@H](O)CC(=O)CCc1ccc(O)c(OC)c1 [6G, 6-gingerol]",IC50,CYP2E1,> 98.5 µM
same,IC50,CYP3A4 [1],> 98.5 µM
same,IC50,CYP3A4 [2],37.4 µM
same,IC50,CYP2C19,10.9 µM
same,Cmax / circulating concentration in humans,"[3]; human, in vivo, po",850 ± 430 ng/mL
same,IC50,CYP1A2,19 µM
same,"efflux ratio at 120 min, 10 µM","[4]; Caco-2, pH 7.4, Efflux Ratio",< 2
same,"recovery at 120 min, 10 µM",[4]; A→B,< 50%
same,"recovery at 120 min, 10 µM",[4]; B→A,77%
same,"Papp at 120 min, 10 µM",[4]; A→B,> 10 ×10⁻⁶ cm/s
same,"Papp at 120 min, 10 µM",[4]; B→A,> 10 ×10⁻⁶ cm/s
same,Intracellular (cell) accumulation,Caco-2 monolayer,< 5%
same,Intracellular accumulation,Caco-2 monolayer; A→B,2%
same,Intracellular accumulation,Caco-2 monolayer; B→A,5%
same,IC50,"CYP2C8; IC50 CYP2C8, human liver microsomes",22.1 µM
same,IC50,CYP2B6,51 µM
same,IC50,CYP2C9,27.9 µM
same,IC50,CYP2A6,> 98.5 µM
same,IC50,"CYP2D6; IC50 CYP2D6, human liver microsomes",> 98.5 µM
